Entries after “also recorded” stand apart in the source; their conditions may differ.
What was measured:
DIAMOND™ mice [1] = assay: Gut permeability by serum dextran competitive ELISA after 4 kDa dextran gavage, WDSW-fed DIAMOND mice (Example 1); assay type: in vivo, mouse; details: for Western Diet-induced GP (conclusion): Example 1 conclusion
Description: Pioglitazone was dosed at 30 mg/kg for the entire 12 weeks. Gut permeability (GP) was assessed twice at 12 weeks and 20 weeks by measuring dextran absorption into the bloodstream using a competitive enzyme-linked immunosorbent assay (ELISA) with 20 μL of serum collected by tail nick. Mice were gavaged with 4 kDa dextran at 600 mg/kg; the more permeable the gut, the more dextran is detected in serum. Results between dose groups were compared using Student's 2-tailed t-test, and pair-wise analysis was performed on serial measurements from week-12 to week-20 to assess drug impact on progression of GP over time. Serum and liver tissues were collected at necropsy, formalin-fixed, paraffin-embedded (FFPE) slides stained with H&E and Sirius Red, and liver pathology was assessed.

DIAMOND™ mice [2] = assay: Serum LFT / hepatic panel, Abaxis VS2 (Example 2); assay type: in vivo, mouse; details: serum at necropsy
Description: (§1) Lipid (total cholesterol, LDL, HDL, triglycerides, HDL calc.) and hepatic (ALB, AST, ALT, Alk, Phos, BUN, GGT, T Bil) panels were performed as described below. Due to natural variations in mice physiology extra serum might not be available to repeat testing.
Abaxis VS2 blood chemistry analyzers were used for measuring LFTs. This instrument is FDA approved for veterinary use, CLIA waived, and self-calibrating. It is the equivalent instrument to the Abaxis Piccolo instrument for human diagnostic testing. Phenobarbital test rotors (catalog #500-0049) were used which measure AST, ALT, ALP, GGT, ALB, and Total Bilirubin. The reactions are colorimetric, read automatically by the VS2 instrument, and results printed on a sticker which is attached to the necropsy specimen sheet and then entered into Excel. A minimum of 100 microliters of sample is needed for this test rotor, which may be either undiluted serum or diluted serum, in a ratio of 1:1 50 microliters of serum: 50 microliters of PBS without affecting accuracy of measurement of analytes. Significant hemolysis may render samples un-readable.

DIAMOND™ mice [3] = assay: Liver histology scoring, H&E and Sirius Red (Example 2); assay type: in vivo, mouse
Description: Liver samples were fixed in 10% neutral buffered formalin for 36-48 hours depending on the size of the sample before being placed into 70% alcohol. The samples were then processed into FFPE blocks. The FFPE blocks were sectioned and three (3) slides were cut per block and submitted for H&E and Sirius Red staining, and subsequent histology analysis. The samples' identity was blinded at the time of shipment for unbiased scoring.
Slide evaluation and scoring include NAS component scoring (fibrosis, steatosis grade and percentage, inflammation, ballooning), NAS score, SAF activity score, Fibrosis NASH CRN Score, Perisinusoidal Fibrosis score, and NASH category score. A histopathology sub-report is to be prepared containing scores and representative photographic images from each group.

DIAMOND™ mice [4] = assay: Leaky gut assay / Dextran Assay - gut permeability at week 12 and week 20 (Example 2); assay type: in vivo, mouse; details: for GP at week-12 compared to vehicle control (Arm-5): after 4 weeks of treatment; for GP at week-20 compared to vehicle control: after 12 weeks of treatment; for GP week-20 vs week-12: mice with data at both time points, paired t-test
Description: At 8 weeks on diet (t=8), mice were randomized into experimental groups based on the most recent body weight. […] Gut integrity/permeability was measured with the leaky gut assay on week 12 (one month on test article treatment) and on week 20 immediately prior to sacrifice. At each assay time point, between 0.2 ml and 0.4 ml of 4 kDa dextran solution (2 g/10 ml PBS solution, 0.2 g/mL) was orally gavaged to mice. After 4 hours, blood was collected from the tail vein and processed to serum. Dextran concentration in samples was measured by ELISA.
Gut integrity/permeability was measured with the leaky gut assay at two time points (12-week and 20-week) by competitive Dextran ELISA, 4 weeks after initial drug dosing with test article or vehicles, and immediately prior to sacrifice. Fresh fecal pellets were collected prior to each assay and placed into RNAlater and frozen (for possible future gut microbiome analysis).
• a. The leaky gut assay was performed at week 12 (one month on treatment) and immediately prior to sacrifice. • b. The procedure for the dextran was as follow: • i. 2 g of 4 kD dextran was weighed into a static free weigh dish. • ii. The dextran was mixed into a 10 ml of PBS solution. • iii. Between 0.2 ml and 0.4 ml of dextran solution was orally gavaged into mice. Each mouse staggered by 10 minutes to maintain blood dextran consistency during blood collection. • iv. 4 hours post gavage lidocaine applied to the tails of the mice in the order that they were gavaged. • v. The mice were lightly restrained in a mouse restraint device. • vi. After 5 minutes 70% alcohol was applied to a cotton swab and used to wipe off the lidocaine. • vii. Sterile scissors were used to perform a tail nick. • viii. 140 μl of whole blood was collected into a capillary tube. • ix. The capillary tubes were spun at 3,000 RPM for 8 minutes. • x. The capillary tubes were broken at the supernatant line and the serum was blown into an Eppendorf tube and snap frozen in liquid nitrogen.

DIAMOND™ mice [5] = assay: Liver weight at necropsy (Example 2); assay type: in vivo, mouse; details: week 20
Description: Body weight and liver weight at time of euthanasia were recorded. Any abnormal gross anatomy signs on the body or liver would have been noted. […] The liver was processed into sections.

DIAMOND™ mice [6] = assay: Blood glucose and ketones from tail nick (Example 2); assay type: in vivo, mouse; details: at necropsy
Description: Following completion of the dosing period on t=20, the mice were placed into a clean cage and fasted for six (6) hours prior to euthanasia. Animals were euthanized by exposing them to carbon dioxide as an anesthetic followed by cardiac puncture for exsanguination. Cervical dislocation was performed as a secondary means of euthanasia. A volume of 3-5 μl of whole blood were collected from a tail nick premortem and used for glucose and ketone testing. A second volume of 300-500 μl of blood collected at euthanasia were processed to serum, aliquoted into small vials and flash frozen in liquid nitrogen for further tests including liver function and lipid tests as per study protocol. Remaining serum was stored frozen for further possible testing.
• a. Immediately prior to euthanasia a tail nick was performed. Whole blood was used to measure ketones and glucose. • b. Euthanasia—The mice were placed into a clean cage and fasted for 6 hours prior to euthanasia. Blood collection took place during euthanasia via cardiac puncture. The blood was collected into micro-serum separator tubes and processed to serum by centrifugation under 4 degrees Celsius for 15 minutes at 5,000 RMP, aliquoted in 100 μl aliquots, and serum flash frozen. Serum samples were stored frozen at −80° C. until use. […]

DIAMOND™ mice [7] = assay: Serum lipid profile, Alere Cholestech LDX (Example 2); assay type: in vivo, mouse; details: serum at necropsy
Description: as §1
40-50 microliters of thawed serum were placed into the sample well of an AL-10-991 test cassette, then the test cassette placed into the Alere Cholestech LDX blood lipid analyzer. The Alere Cholestech is FDA approved and CLIA waived for human use at POC and is used by numerous drug companies and CROs in preclinical studies because it only requires a small amount of blood. It may be used with whole blood, serum or plasma for humans, but mouse blood clots much faster and so whole blood in our experience has a higher failure rate. We therefore used serum.
Readouts were: • 1. Total cholesterol (T-chol) • 2. Triglycerides (TRIGS) (45 lower LOD) • 3. Glucose (standard range) • 4. HDL (100 upper LOD) • 5. LDL (calculated T-Chol—HDL)

[8] = tested on: Staphylococcus, Streptococcus, Enterococcus, and Enterobacteriaceae; details: species of Staphylococcus; cited from earlier work
DIAMOND™ mice [9] = assay type: in vivo; details: 150 mg/kg oral gavage; arm terminated early
Description: 8 mice gavaged with Curcumin at a dose of 150 mg/kg.
8 mice dosed from week 8 (t=8) until week 20 (t=20) on the Western Diet Sugar Water with once (1×) daily oral gavage with curcumin 150 mg/kg.

[10] = Results Analysis 2, Week 12, after 4 weeks of treatment
[11] = Results Analysis 2, Week 20, after 12 weeks of treatment
[12] = Results Analysis 1, pair-wise analysis
[13] = end of study, listed as Vitamin-E

SMILES | mean serum dextran concentration (DIAMOND™ mice [1]; [10]) | fold reduction in mean serum dextran concentration compared with vehicle (DIAMOND™ mice [1]; Results Analysis 2, Week 20) | mean serum dextran concentration (DIAMOND™ mice [1]; [11]) | BUN vs Vehicle control groups (Arm-5 and Arm-10) (DIAMOND™ mice [2]) | Western Diet-induced GP (conclusion) (DIAMOND™ mice [1]) | serum dextran concentration (significance) (DIAMOND™ mice [1]; Results Analysis 2, Week 20) | GP at week-12 compared to vehicle control (Arm-5) (DIAMOND™ mice [4]) | GP at week-20 compared to vehicle control (DIAMOND™ mice [4]) | GP week-20 vs week-12 (DIAMOND™ mice [4]) | liver weight vs Vehicle Control (Arm-5) (DIAMOND™ mice [5]) | Ketones blood level vs vehicle control (Arm-5) (DIAMOND™ mice [6]) | triglycerides vs vehicle control (Arm-5) (DIAMOND™ mice [7]) | prevalence of NASH (disease category) (DIAMOND™ mice [3]; end of study) | other results
CCc1ccc(CCOc2ccc(CC3SC(=O)NC3=O)cc2)nc1 (centres unmarked) [Pioglitazone] | 121 µg/mL | 3.0 fold | 71.8 µg/mL | significantly increased |  |  |  |  |  |  |  |  |  | steatosis-only (disease category) (DIAMOND™ mice [3]; end of treatment): 100%
CO[C@H]1/C=C/O[C@@]2(C)Oc3c(C)c(O)c4c(O)c(c5c(nc6cc(C)ccn65)c4c3C2=O)NC(=O)/C(C)=C\C=C\[C@H](C)[C@H](O)[C@@H](C)[C@@H](O)[C@@H](C)[C@H](OC(C)=O)[C@@H]1C [Rifaximin] | 151 µg/mL |  | 81.2 µg/mL | significantly increased | dramatically improved | significant reduction | no changes | significantly lower GP | borderline significant | did not reduce liver weight | slightly decreased; also recorded: decreased | no effect |  | serum dextran average at 20 weeks (DIAMOND™ mice [1]; [12]): 85.9 µg/mL; serum dextran, 12-week average (DIAMOND™ mice [1]; [12]): 154.0 µg/mL; improvement of leaky gut in the 8 weeks between first and second measurement (DIAMOND™ mice [1]; Results Analysis 1, week 12 to week 20): 45%; improvement in leaky gut during the 8 weeks between assessments (DIAMOND™ mice [1]; Results Analysis 2, pair-wise, Week 12 to Week 20): 46.2%; triglycerides vs vehicle control (Arm-5) (DIAMOND™ mice [7]; listed as Arm-3): no significant effect; Liver steatosis % vs control Arm-5 (DIAMOND™ mice [3]; end of study): increased; also recorded: slight increase in steatosis; in vitro antibacterial activity [8]: active
Cc1c(C)c2c(c(C)c1O)CC[C@@](C)(CCC[C@H](C)CCC[C@H](C)CCCC(C)C)O2 [Vitamin E, a-tocopherol] |  |  |  |  |  |  | no effect | no effect | Trending upward | lower | moved ketone levels up | no effect | 38% | GP week-20 vs week-12 (DIAMOND™ mice [4]; listed as Vit. E): trends toward an increase in GP; triglycerides vs vehicle control (Arm-5) (DIAMOND™ mice [7]; listed as Arm-9): no significant effect; ALT vs control vehicles (DIAMOND™ mice [2]): significantly increased; AST vs control vehicles (DIAMOND™ mice [2]): significantly increased; Albumin vs vehicle control (DIAMOND™ mice [2]): lower albumin; Albumin vs vehicle control (DIAMOND™ mice [2]; listed as Vitamin-E): decreased; Lobular inflammation vs control Arm-5 (DIAMOND™ mice [3]; end of study): increase; NAFLD Activity Score (NAS) vs control Arm-5 (DIAMOND™ mice [3]; end of study): slight increase; Steatosis, Activity and Fibrosis (SAF) score vs control Arm-5 (DIAMOND™ mice [3]; end of study): slight increase; Lobular inflammation vs control Arm-5 (DIAMOND™ mice [3]; [13]): increased; NAFLD Activity Score (NAS) vs control Arm-5 (DIAMOND™ mice [3]; [13]): increased; Steatosis, Activity and Fibrosis (SAF) score vs control Arm-5 (DIAMOND™ mice [3]; [13]): increased
COc1cc(/C=C/C(=O)CC(=O)/C=C/c2ccc(O)c(OC)c2)ccc1O [Curcumin] |  |  |  |  |  |  |  |  |  |  |  |  |  | mortality (DIAMOND™ mice [9]): excess mortality
C[N@+]1(CC2CC2)CC[C@]23c4c5ccc(O)c4O[C@H]2C(=O)CC[C@@]3(O)[C@H]1C5.[Br-] [MNTX, (R)-N-(cyclopropylmethyl) noroxymorphone methobromide] | 91 µg/mL | 2.9 fold | 74.7 µg/mL |  | dramatically improved | significant reduction | significantly lower GP | persists at week-20; also recorded: significantly lower GP | maintained | significantly lower liver weight |  | no significant effect | 38% | fold reduction of serum dextran compared to the VC group (DIAMOND™ mice [1]; Results Analysis 1, 12 week timepoint): 2.7 fold; serum dextran concentration (DIAMOND™ mice [1]; Results Analysis 1, 12 week timepoint, 4 weeks of treatment): 90.9 µg/mL; average serum dextran concentration, fold lower than the VC group (DIAMOND™ mice [1]; Results Analysis 1, 20 week timepoint, 12 weeks of treatment): 2 fold; fold reduction in mean serum dextran concentration compared with vehicle (DIAMOND™ mice [1]; Results Analysis 2, Week 12): 1.8 fold; serum dextran concentration relative to vehicle (significance) (DIAMOND™ mice [1]; Results Analysis 2, Week 12): significant reduction

From US20220175764A1 (priority 2019, published 2022)
